From US20250017935A1, “7,8-DIHYDRO-5H-1,6-NAPHTHYRIDINE DERIVATIVES AS POSITIVE ALLOSTERIC MODULATORS OF THE MUSCARINIC ACETYLCHOLINE RECEPTOR M4 FOR TREATING NEUROLOGICAL AND PSYCHIATRIC DISORDERS” (Vanderbilt University, priority 2021, published 2025) come the findings set out here.

This test addresses T1, Human M4 (Homo sapiens, UniProt P08173).
T1 construct: expressed in transfected cells; host or cells: CHO-K1 (ATCC), stably expressing hM4 and Gqi5
T1 sequence (P08173 1-479): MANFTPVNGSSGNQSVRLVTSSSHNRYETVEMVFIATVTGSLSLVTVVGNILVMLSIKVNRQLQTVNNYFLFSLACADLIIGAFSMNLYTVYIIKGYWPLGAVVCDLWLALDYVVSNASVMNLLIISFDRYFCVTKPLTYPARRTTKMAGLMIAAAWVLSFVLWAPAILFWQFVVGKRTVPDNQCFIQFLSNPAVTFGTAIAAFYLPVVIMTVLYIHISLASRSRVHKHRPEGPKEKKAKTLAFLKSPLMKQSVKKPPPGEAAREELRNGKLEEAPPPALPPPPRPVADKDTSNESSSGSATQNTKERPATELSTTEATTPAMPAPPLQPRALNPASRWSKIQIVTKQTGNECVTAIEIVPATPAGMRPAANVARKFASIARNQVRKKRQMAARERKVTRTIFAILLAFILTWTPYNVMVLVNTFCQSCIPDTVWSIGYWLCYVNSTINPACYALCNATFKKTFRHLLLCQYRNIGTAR
Nature of the test: mAChR M4 cell-based functional assay (calcium flux, potentiation of EC20 acetylcholine response) in hM4-Gqi5 CHO-K1 cells. Particulars: for Emax at 30 µM: % ACh maximum at 30 μM, human M4 CHO-K1 cells; for EC50: CHO-K1 cells transfected with human M4 and Gqi5, positive allosteric modulator activity, EC20 acetylcholine. In a few lines:
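CHO-K1 cells stably expressing human M4 with chimeric Gqi5, Fluo-4 AM-loaded; 11-point 1:3 compound series added, intracellular calcium recorded by FDSS at 1 Hz. PAM EC50 is concentration giving 50% of maximal compound-induced increase above the acetylcholine EC20 baseline, from four-parameter logistic fit; Emax also derived.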
For orientation: Calcium assays in cells follow changes in intracellular calcium, usually with a dye or a luminescent sensor.

Usually Emax stands for the size of the effect at its maximum, as opposed to the concentration needed. What is called EC50 is the concentration giving half of the maximal effect.

For the compound `Clc1nc2c(c(N3CCc4ncc(C5CC5)cc4C3)n1)COC2` [Compound 66, 2-chloro-4-(3-cyclopropyl-7,8-dihydro-1,6-naphthyridin-6(5H)-yl)-5,7-dihydrofuro[3,4-d]pyrimidine], the Emax at 30 µM turned out to be 54% and the EC50 turned out to be 580 nM.
As to `Cn1nccc1Nc1cnc2c(c1)CN(c1nc(Cl)nc3c1COC3)CC2` [Compound 67, 6-(2-chloro-5,7-dihydrofuro[3,4-d]pyrimidin-4-yl)-N-(1-methyl-1H-pyrazol-5-yl)-5,6,7,8-tetrahydro-1,6-naphthyridin-3-amine], the Emax at 30 µM amounted to 51% and the EC50 turned out to be 1220 nM.
For `Fc1ncccc1Nc1cnc2c(c1)CN(c1nc(Cl)nc3c1COC3)CC2` [Compound 68, 6-(2-chloro-5,7-dihydrofuro[3,4-d]pyrimidin-4-yl)-N-(2-fluoropyridin-3-yl)-5,6,7,8-tetrahydro-1,6-naphthyridin-3-amine], the Emax at 30 µM was 51% and the EC50 was found to be 920 nM.
As to `Fc1ccccc1Oc1cnc2c(c1)CN(c1nc(Cl)nc3c1COC3)CC2` [Compound 69, 2-chloro-4-(3-(2-fluorophenoxy)-7,8-dihydro-1,6-naphthyridin-6(5H)-yl)-5,7-dihydrofuro[3,4-d]pyrimidine], the Emax at 30 µM came out at 42% and the EC50 came out at 990 nM.
